{"source": "paper PMC4999848", "about": "(Toxins, 2016)", "key": {"[1]": {"design": "method as in PMID 26343882", "settings": "pigs, oral and intravenous (i.v) exposures; cited from earlier work"}, "recombinant human CES2": {"target": "T1, recombinant human CES2 (Homo sapiens, UniProt O00748)", "T1 sequence (O00748 27-559)": "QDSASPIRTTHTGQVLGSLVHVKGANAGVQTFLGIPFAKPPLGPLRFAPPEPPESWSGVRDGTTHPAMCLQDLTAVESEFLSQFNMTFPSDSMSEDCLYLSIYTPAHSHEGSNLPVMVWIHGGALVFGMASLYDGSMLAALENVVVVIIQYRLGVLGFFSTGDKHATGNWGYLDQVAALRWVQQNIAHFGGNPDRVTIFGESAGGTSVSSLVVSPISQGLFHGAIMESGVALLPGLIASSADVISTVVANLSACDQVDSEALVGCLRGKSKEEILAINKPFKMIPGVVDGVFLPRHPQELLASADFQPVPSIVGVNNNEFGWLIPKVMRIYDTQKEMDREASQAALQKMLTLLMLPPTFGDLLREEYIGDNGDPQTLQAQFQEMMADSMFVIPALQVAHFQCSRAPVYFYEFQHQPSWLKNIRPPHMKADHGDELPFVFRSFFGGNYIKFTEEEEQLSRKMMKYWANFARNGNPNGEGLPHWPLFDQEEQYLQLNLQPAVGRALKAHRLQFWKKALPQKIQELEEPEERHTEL", "test": "Deacetylation of 3/15ADON by recombinant CES2", "type": "in vitro ADME", "design": "purchased R&D Systems", "settings": "5 μg/mL CES2, up to 24 h, data not shown", "description": "Stock solutions of DON, 3ADON and 15ADON at 2 mg/mL were prepared in absolute ethanol and stored at −20 °C. For deacetylation assay, 3- or 15ADON were incubated with cells, explants, bacteria or digestive enzymes after being diluted in PBS^++ at a final concentration of 100 μM. PBS^++ solution containing only ethanol (at 1.5% final concentration) or DON (at 100 μM) were used in parallel as negative and positive control, respectively. For cells and explants, deacetylation assay take place in 6-well plates, wells being filled with 2 mL of PBS^++ containing either ethanol, DON, 3- or 15ADON. For fecal bacteria and digestive enzyme assay, deacetylation assay was conducted in 2 mL Eppendorf tubes filled with 1.5 mL of PBS^++ containing either ethanol, DON, 3- or 15ADON. In vitro intestinal digestion by luminal enzymes was performed using porcine enzymes from Sigma-Aldrich and physiological conditions. […] In all cases, aliquots of the reaction solution were collected immediately (i.e., “time zero” sample) or after the indicated time period at 37 °C and analyzed by HPLC. […]\nDeacetylation was monitoring both in term of disappearance of 3- or 15ADON and formation of DON. […] Quantification was based on calibration with the corresponding standard using Millinium Software (Waters, Saint Quentin Falavier, France)."}, "T84 cells": {"test_system": "T84 cells", "test": "Deacetylation of 3/15ADON by T84 cells", "type": "in vitro ADME, human", "settings": "T84, 37 °C, substrate 100 μM", "description": "A498, Caco-2, T84 and HepG2 cells were used as models of human renal, small intestinal, colonic and hepatic cells, respectively. Cells were routinely grown in culture media (Dulbecco’s Modified Eagle Medium (DMEM), DMEM:F12 mixture and Minimum Essential Media (MEM) for A498/Caco-2, T84 and HepG2 cells, respectively) supplemented with 10% fetal calf serum and 1% antibiotics (streptomycin–penicillin solution). Cells were grown in 25 cm^2 ventilated flask maintained at 37 °C in a 5% CO2 incubator. Cells were routinely passed using trypsin-EDTA solution. For deacetylation experiments, cells were seeded onto 6-well plates at an initial density of 200,000 cells/cm^2. HepG2 and A498 were used 3–4 days post-seeding when confluence was reached. Caco-2 and T84 cells were let to differentiate for 10–14 days post-seeding before being used. In all cases, cells were washed three times with sterile phosphate buffer saline PBS^++ (PBS containing 100 mg/L of calcium and magnesium salts) before deacetylation assay.\nStock solutions of DON, 3ADON and 15ADON at 2 mg/mL were prepared in absolute ethanol and stored at −20 °C. […] In all cases, aliquots of the reaction solution were collected immediately (i.e., “time zero” sample) or after the indicated time period at 37 °C and analyzed by HPLC. […]"}}, "note": "Where “and” joins values, the source holds several entries; their conditions need not be identical. Identical values can stand only once. Entries after “also recorded” stand apart in the source; their conditions may differ."}
{"smiles": "CC(=O)OC[C@]12[C@H](O)C(=O)C(C)=C[C@H]1O[C@@H]1[C@H](O)C[C@@]2(C)[C@]12CO2", "note": "[15ADON, 15-acetyldeoxynivalenol]", "values": [{"measurement": "Transformation into DON in vivo", "setting": "[1]", "result": "complete transformation into DON"}, {"measurement": "Deacetylation activity of CES2 on 3/15ADON", "setting": "recombinant human CES2", "result": "failed at observing any deacetylation activity; also recorded: unable to cause the deacetylation"}, {"measurement": "Disappearance of 3/15ADON, specific activity", "setting": "T84 cells", "result": "98 pmol/min/mg and 98 ± 29 pmol/min/mg"}]}
{"smiles": "CC(=O)O[C@@H]1C[C@]2(C)[C@@]3(CO)[C@H](O)C(=O)C(C)=C[C@H]3O[C@H]1[C@@]21CO1", "note": "[3ADON, 3-acetyldeoxynivalenol]", "values": [{"measurement": "Transformation into DON in vivo", "setting": "[1]", "result": "complete transformation into DON"}, {"measurement": "Deacetylation activity of CES2 on 3/15ADON", "setting": "recombinant human CES2", "result": "failed at observing any deacetylation activity; also recorded: unable to cause the deacetylation"}, {"measurement": "Disappearance of 3/15ADON, specific activity", "setting": "T84 cells", "result": "80 pmol/min/mg and 80 ± 24 pmol/min/mg"}]}
